Values of other authors in patent US20080153785A1, “Pharmaceutical Compositions Containing Biophosphonate for Improving Oral Absorption” (CHONG KUN DANG PHARMACEUTICAL CORP., priority 2005, published 2008).

Settings: long-term treatment, normally taken

Compound: NCCCC(O)(P(=O)(O)O)P(=O)(O)O [alendronate, 4-Amino-1-hydroxybutylidene-1,1-biphosphonate]
- incidence of heartburn or epigastric pain: about 36 % of patients
